Where “and” joins values, the source holds several entries; their conditions need not be identical. Equal values may be shown once. Calls of active or inactive are those of the source. No rule for the calls is given here.

The IC50 is the concentration needed to halve the response being measured.

The target in this test is Dihydrolipoyl dehydrogenase (Mycobacterium tuberculosis (strain ATCC 25618 / H37Rv)) (UniProt P9WHH9). As to the kind of experiment: Purified Mycobacterium tuberculosis Lpd inhibitors, DTNB colorimetric coupled assay, confirmatory IC50 (AID 1053164). Conditions: Purified M. tb Lpd, DTNB colorimetric plate reader.
Take `CO[C@H]1CC[C@H]2CCN(C)C(=O)[C@@H](Cc3ccccc3)N(C)C(=O)c3cccc(C#N)c3OC[C@@H]1O2`: the IC50 is > 100 µM (inactive).
Under `CO[C@H]1CC[C@H]2CCN(C)C(=O)[C@@H](C)N(C)C(=O)c3cc(Cl)cnc3OC[C@@H]1O2` stands 25 µM; under `CO[C@H]1CC[C@H]2CCN(C)C(=O)[C@@H](C)N(C)C(=O)c3ccc(F)nc3OC[C@@H]1O2`, > 100 µM (inactive); under `CCCC[C@@H]1C(=O)N(C)CC[C@@H]2CC[C@H](OC)[C@H](COc3c(C#N)cccc3C(=O)N1C)O2`, > 100 µM (inactive).
For `CO[C@H]1CC[C@H]2CCN(C)C(=O)[C@H]3CCCN3C(=O)c3cccc(C#N)c3OC[C@@H]1O2` the value was > 100 µM (inactive).
Consider `CO[C@H]1CC[C@H]2CCN(C)C(=O)[C@@H](C)N(C)C(=O)c3cccc(C#N)c3OC[C@@H]1O2`, for which the IC50 is 6 µM and > 100 µM (inactive).
Under `CO[C@H]1CC[C@H]2CCN(C)C(=O)[C@@H](C)N(C)C(=O)c3c(C(F)(F)F)ccnc3OC[C@@H]1O2` stands > 100 µM (inactive); under `CO[C@H]1CC[C@H]2CCN(C)C(=O)CN(C)C(=O)c3cccc(C#N)c3OC[C@@H]1O2`, > 100 µM (inactive).
Under `CO[C@H]1CC[C@H]2CCN(C)C(=O)CCN(C)C(=O)c3cccc(C#N)c3OC[C@@H]1O2` stands > 100 µM (inactive); under `CO[C@H]1CC[C@H]2CCN(C)C(=O)[C@@H](C)N(C)C(=O)c3cccnc3OC[C@@H]1O2`, > 100 µM (inactive).
In the case of `CO[C@H]1CC[C@H]2CC(=O)N(C)CCN(C)C(=O)c3cccc(C#N)c3OC[C@@H]1O2`, the IC50 was > 100 µM (inactive).
Under `CO[C@H]1CC[C@H]2CCN(C)C(=O)[C@@H](C(C)C)N(C)C(=O)c3cccc(C#N)c3OC[C@@H]1O2` stands > 100 µM (inactive).
For `CO[C@H]1CC[C@H]2CCN(C)C(=O)[C@@H](c3ccccc3)N(C)C(=O)c3cccc(C#N)c3OC[C@@H]1O2` the value was > 100 µM (inactive); for `CO[C@H]1CC[C@H]2CCN(C)C(=O)CCCN(C)C(=O)c3cc(Cl)cnc3OC[C@@H]1O2`, > 100 µM (inactive).
For `CO[C@H]1CC[C@H]2CCN(C)C(=O)CCCN(C)C(=O)c3cccc(C#N)c3OC[C@@H]1O2` the value was > 100 µM (inactive); for `CO[C@H]1CC[C@H]2CCN(C)C(=O)CCCN(C)C(=O)c3cccnc3OC[C@@H]1O2`, > 100 µM (inactive).

(Values after PubChem BioAssay AID1053164 (Broad Institute, 2014).)
